Measurements as given in patent US12398121B2 (Nuvation Bio Inc., priority 2018, dated 2025).

Each compound was assayed on 22RV1 cells (assay: Cell proliferation assay (CellTiter Glo), 22RV1). Conditions: Homo sapiens, 22Rv1, 72 h, read-out: 22RV1 IC50.
Type: cell-based
Description: IC50 values were calculated and graphed using the model “log(inhibitor) vs. response—Variable slope” included in GraphPad Prism 5 (San Diego, CA). The Ki values were further calculated using the equation below where [L] was the radioligand concentration (1 nM) using in this study. Kd value was 0.332 nM. Ki=IC50/(1+[L]/Kd) c. AR transactivation: Human AR cloned into a CMV vector backbone was used for the transactivation study. HEK-293 cells were plated at 80,000 cells per well of a 24 well plate in DME+5% csFBS. Twenty four hours later, the cells were transfected using Lipofectamine (Invitrogen, Carlsbad, CA) with 0.25 μg GRE-LUC, 0.01 μg CMV-LUC (renilla luciferase) and 25 ng of the AR in OPTIMEM medium. The cells were treated 24 hrs after transfection with various ligands (10^−12 to 10^−5 M final concentrations) and luciferase assay were performed 48 hours after transfection. Firefly values were normalized to renilla luciferase values and the values were represented as relative light units (RLU). Agonist and antagonist assays for the test article were performed in the absence and in the combination with 0.1 nM R1881, respectively. Data were represented as EC50 (for agonists) and IC50 (for antagonists) obtained from four parameter logistics curve. Cell culture and proliferation assays: LNCaP, PC-3, 22RV1, MCF-7, HT-29, and HCT-116 cells were procured from American Type Culture Collection (ATCC). Cells were cultured in medium recommended by the ATCC. Cell culture medium was obtained from Fisher scientific (Waltham, MA) and serum was obtained from Hyclone (San Angelo, TX).
Cells were plated at varying density in the respective growth medium in 96 well plates. 24 hr later, cells were treated, in triplicate or quadruplicate, with test articles prepared in a range of concentrations by series dilution of DMSO stock solutions in growth medium and incubated for three to seven days. The number of viable 22RV1 and HT-29 cells was measured using CellTiter Glo assay (CTG, Promega, Madison, WI) after three days of treatment. The other types of cancer cells were re-treated at three or four days and the number of viable cells was measured using CTG assay after a total treatment time of six or seven days. Cell viability data were plotted using GraphPad Prism (GraphPad Software, Inc., San Diego, CA). In addition, a nonlinear regression model with a sigmoidal dose response and variable slope within GraphPad Prism was used to calculate the IC50 value of individual test articles. Additional cell proliferation assays: Other cancer cell lines are tested in a cell proliferation assay. For example, SK-OV-3 or OVCAR3 ovarian cancer cells are tested. Cells are cultured in medium recommended by the supplier (e.g., ATCC or JCRB Cell Bank), at 37° C. in a 5% CO2 environment. For the proliferation assay, cells are plated in the growth medium in 96 well plates. Seeding density is adjusted according to the cell type. 24 hr later, cells are treated, in triplicate or quadruplicate, with test articles prepared in a range of concentrations by series dilution of DMSO stock solutions in growth medium, and typically incubated for three to seven days, with test article-containing medium replaced after three or four days. The number of viable cells is measured using CellTiter Glo assay (CTG, Promega, Madison, WI) or similar. Cell viability data are plotted using GraphPad Prism (GraphPad Software, Inc., San Diego, CA). In addition, a nonlinear regression model with a sigmoidal dose response and variable slope within GraphPad Prism is used to calculate the IC50 value of individual test articles. Similarly, HEK-293 and HeLa calls can also be tested by methods known in the art. • f. Nuclear translocation: LNCaP cells are plated on coverslips in 24 well plates in growth medium. Twenty-four hours after plating, medium is changed to RPMI+1% csFBS and the cells are maintained in this medium for two days. Medium is replaced again and the cells are treated. […]

| Structure (SMILES) | IC50 [nM] |
| --- | --- |
| C[C@]12CCC(=O)C[C@@H]1CC[C@@H]1[C@@H]2CC[C@@]2(C)[C@H]1CC[C@@]2(O)CCCN1CCN(C(=O)c2cc(Cc3n[nH]c(=O)c4ccccc34)ccc2F)CC1 [Compound 1.119, 4-(4-fluoro-3-(4-(3-((5S,8R,9S,10S,13S,14S,17R)-17-hydroxy-10,13-dimethyl-3-oxohexadecahydro-1H-cyclopenta[a]phenanthren-17-yl)propyl)piperazine-1-carbonyl)benzyl)phthalazin-1(2H)-one] | 2900 |
| C[C@]12CCC(=O)C[C@@H]1CC[C@@H]1[C@@H]2CC[C@]2(C)[C@@H](OCCCCCC(=O)N3CCN(C(=O)c4cc(Cc5n[nH]c(=O)c6ccccc56)ccc4F)CC3)CC[C@@H]12 [Compound 1.2, 4-(3-(4-(6-(((5S,8R,9S,10S,13S,14S,17S)-10,13-dimethyl-3-oxohexadecahydro-1H-cyclopenta[a]phenanthren-17-yl)oxy)hexanoyl)piperazine-1-carbonyl)-4-fluorobenzyl)phthalazin-1(2H)-one] | 400 |
| C[C@](O)(CS(=O)(=O)c1ccc(NCCCCCC(=O)N2CCN(C(=O)c3cc(Cc4n[nH]c(=O)c5ccccc45)ccc3F)CC2)cc1)C(=O)Nc1ccc(C#N)c(C(F)(F)F)c1 [Compound 1.68, (R)-N-(4-cyano-3-(trifluoromethyl)phenyl)-3-(4-(6-(4-(2-fluoro-5-((4-oxo-3,4-dihydrophthalazin-1-yl)methyl)benzoyl)piperazin-1-yl)-6-oxohexylamino)phenylsulfonyl)-2-hydroxy-2-methylpropanamide] | 4700 |
| C[C@](O)(CS(=O)(=O)c1ccc(NCCN2CCN(C(=O)c3cc(Cc4n[nH]c(=O)c5ccccc45)ccc3F)CC2)cc1)C(=O)Nc1ccc(C#N)c(C(F)(F)F)c1 [Compound 1.99, (R)-N-(4-cyano-3-(trifluoromethyl)phenyl)-3-(4-(2-(4-(2-fluoro-5-((4-oxo-3,4-dihydrophthalazin-1-yl)methyl)benzoyl)piperazin-1-yl)ethylamino)phenylsulfonyl)-2-hydroxy-2-methylpropanamide] | 3600 |
| C[C@](O)(CS(=O)(=O)c1ccc(NCC(=O)N2CCN(C(=O)c3cc(Cc4n[nH]c(=O)c5ccccc45)ccc3F)CC2)cc1)C(=O)Nc1ccc(C#N)c(C(F)(F)F)c1 [Compound 1.98, (R)-N-(4-cyano-3-(trifluoromethyl)phenyl)-3-(4-(2-(4-(2-fluoro-5-((4-oxo-3,4-dihydrophthalazin-1-yl)methyl)benzoyl)piperazin-1-yl)-2-oxoethylamino)phenylsulfonyl)-2-hydroxy-2-methylpropanamide] | 3500 |
| C[C@](O)(COc1ccc(NCCCCCC(=O)N2CCN(C(=O)c3cc(Cc4n[nH]c(=O)c5ccccc45)ccc3F)CC2)cc1)C(=O)Nc1ccc(C#N)c(C(F)(F)F)c1 [Compound 1.83, (S)-N-(4-cyano-3-(trifluoromethyl)phenyl)-3-(4-(6-(4-(2-fluoro-5-((4-oxo-3,4-dihydrophthalazin-1-yl)methyl)benzoyl)piperazin-1-yl)-6-oxohexylamino)phenoxy)-2-hydroxy-2-methylpropanamide] | > 30000 |
| CC1(C)C(=O)N(c2ccc(C#N)c(C(F)(F)F)c2)C(=S)N1c1ccc(C(=O)NCCCCCCNCc2ccc(-c3[nH]c4cc(F)cc5c4c3CCNC5=O)cc2)c(F)c1 [Compound 1.5, 4-(3-(4-cyano-3-(trifluoromethyl)phenyl)-5,5-dimethyl-4-oxo-2-thioxoimidazolidin-1-yl)-2-fluoro-N-(6-((4-(8-fluoro-1-oxo-2,3,4,6-tetrahydro-1H-azepino[5,4,3-cd]indol-5-yl)benzyl)amino)hexyl)benzamide] | 4500 |

Same assay, conditions: Homo sapiens, 22Rv1, 72 h; cell growth inhibition, three days of treatment; read-out: 22RV1 IC50

| Structure (SMILES) | IC50 [nM] |
| --- | --- |
| C[C@]12CCC(F)(F)C[C@@H]1CC[C@@H]1[C@@H]2CC[C@]2(C)[C@@H](OCCCCCC(=O)N3CCN(C(=O)c4cc(Cc5n[nH]c(=O)c6ccccc56)ccc4F)CC3)CC[C@@H]12 [Compound 1.114, 4-(3-(4-(6-((5S,8R,9S,10S,13S,14S,17S)-3,3-difluoro-10,13-dimethylhexadecahydro-1H-cyclopenta[a]phenanthren-17-yloxy)hexanoyl)piperazine-1-carbonyl)-4-fluorobenzyl)phthalazin-1(2H)-one] | 1300 |
| C[C@]12CCC(=O)C[C@@H]1CC[C@@H]1[C@@H]2CC[C@@]2(C)[C@H]1CC[C@@]2(O)c1cn(CC(=O)N2CCN(C(=O)c3cc(Cc4n[nH]c(=O)c5ccccc45)ccc3F)CC2)nn1 [Compound 1.107, 4-(4-fluoro-3-(4-(2-(4-((5S,8R,9S,10S,13S,14S,17S)-17-hydroxy-10,13-dimethyl-3-oxohexadecahydro-1H-cyclopenta[a]phenanthren-17-yl)-1H-1,2,3-triazol-1-yl)acetyl)piperazine-1-carbonyl)benzyl)phthalazin-1(2H)-one] | 1300 |
| C[C@]12CCC(O)C[C@@H]1CC[C@@H]1[C@@H]2CC[C@]2(C)[C@@H](OCCCCCC(=O)N3CCN(C(=O)c4cc(Cc5n[nH]c(=O)c6ccccc56)ccc4F)CC3)CC[C@@H]12 (stereo partly drawn) [Compound 1.111, 4-(4-fluoro-3-(4-(6-((5S,8R,9S,10S,13S,14S,17S)-3-hydroxy-10,13-dimethylhexadecahydro-1H-cyclopenta[a]phenanthren-17-yloxy)hexanoyl)piperazine-1-carbonyl)benzyl)phthalazin-1(2H)-one] | 890 |
| C[C@]12CCC(=O)C[C@@H]1CC[C@@H]1[C@@H]2CC[C@]2(C)[C@@H](OCC(=O)N3CCN(C(=O)c4cc(Cc5n[nH]c(=O)c6ccccc56)ccc4F)CC3)CC[C@@H]12 [Compound 1.110, 4-(3-(4-(2-((5S,8R,9S,10S,13S,14S,17S)-10,13-dimethyl-3-oxohexadecahydro-1H-cyclopenta[a]phenanthren-17-yloxy)acetyl)piperazine-1-carbonyl)-4-fluorobenzyl)phthalazin-1(2H)-one] | 840 |
| O=C(c1ccc(OCCN2CCN(C(=O)c3cc(Cc4n[nH]c(=O)c5ccccc45)ccc3F)CC2)cc1)c1c(-c2ccc(O)cc2)sc2cc(O)ccc12 [Compound 2.13, 4-(4-fluoro-3-(4-(2-(4-(6-hydroxy-2-(4-hydroxyphenyl)benzo[b]thiophene-3-carbonyl)phenoxy)ethyl)piperazine-1-carbonyl)benzyl)phthalazin-1(2H)-one] | 1690 |
| C[C@]12CCC(=O)C[C@@H]1CC[C@@H]1[C@@H]2CC[C@@]2(C)[C@H]1CC[C@@]2(O)C#CCN1CCN(C(=O)c2cc(Cc3n[nH]c(=O)c4ccccc34)ccc2F)CC1 [Compound 1.118, 4-(4-fluoro-3-(4-(3-((5S,8R,9S,10S,13S,14S,17S)-17-hydroxy-10,13-dimethyl-3-oxohexadecahydro-1H-cyclopenta[a]phenanthren-17-yl)prop-2-ynyl)piperazine-1-carbonyl)benzyl)phthalazin-1(2H)-one] | 9700 |
| C[C@]12CCC(=O)C[C@@H]1CC[C@@H]1[C@@H]2CC[C@@]2(C)[C@H]1CC[C@@]2(O)CCC(=O)N1CCN(C(=O)c2cc(Cc3n[nH]c(=O)c4ccccc34)ccc2F)CC1 (stereo in doubt) [Compound 1.117, 4-(4-fluoro-3-(4-(3-((5S,8R,9S,10S,13S,14S,17R)-17-hydroxy-10,13-dimethyl-3-oxohexadecahydro-1H-cyclopenta[a]phenanthren-17-yl)propanoyl)piperazine-1-carbonyl)benzyl)phthalazin-1(2H)-one] | 440 |
